Test results taken from the supplement of paper PMC10307832.

How the values were obtained:
Test in all cases: relative viability (nuclei count vs DMSO), 5 days (fraction); higher = more cells survive
R406 + Palbociclib = compound: COc1cc(Nc2ncc(F)c(Nc3ccc4c(n3)NC(=O)C(C)(C)O4)n2)cc(OC)c1OC [R406] + CC(=O)c1c(C)c2cnc(Nc3ccc(N4CCNCC4)cn3)nc2n(C2CCCC2)c1=O [Palbociclib] (partner 0.5 µM)
In short: (§1)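 Lung cancer cell lines, seeded in 1536-well plates, were treated the following day by pin tool with a single drug or with five library-drug doses (not always all listed) in √10 steps on top of a fixed anchor-drug dose. Cells were fixed and nuclei stained in one step after 5 days, and nuclei were counted. Relative viability is the nuclei count for treated wells divided by that for vehicle wells, reported as medians of duplicate plates.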

R406 + Navitoclax = compound: COc1cc(Nc2ncc(F)c(Nc3ccc4c(n3)NC(=O)C(C)(C)O4)n2)cc(OC)c1OC [R406] + CC1(C)CCC(c2ccc(Cl)cc2)=C(CN2CCN(c3ccc(C(=O)NS(=O)(=O)c4ccc(N[C@H](CCN5CCOCC5)CSc5ccccc5)c(S(=O)(=O)C(F)(F)F)c4)cc3)CC2)C1 [Navitoclax] (partner 0.5 µM)
In short: as §1

Daporinad + Crizotinib = compound: O=C(/C=C/c1cccnc1)NCCCCC1CCN(C(=O)c2ccccc2)CC1 [Daporinad] + C[C@@H](Oc1cc(-c2cnn(C3CCNCC3)c2)cnc1N)c1c(Cl)ccc(F)c1Cl [Crizotinib] (partner 1 µM)
In short: as §1

Daporinad + Linsitinib = compound: O=C(/C=C/c1cccnc1)NCCCCC1CCN(C(=O)c2ccccc2)CC1 [Daporinad] + C[C@]1(O)C[C@@H](c2nc(-c3ccc4ccc(-c5ccccc5)nc4c3)c3c(N)nccn32)C1 [Linsitinib] (partner 1 µM)
In short: as §1

Cell Line | relative viability (R406 + Palbociclib; first compound 0.08 µM) | relative viability (R406 + Palbociclib; first compound 0.253 µM) | relative viability (R406 + Palbociclib; first compound 0.8 µM) | relative viability (R406 + Palbociclib; first compound 2.53 µM) | relative viability (R406 + Palbociclib; first compound 8 µM) | relative viability (R406 + Navitoclax; first compound 0.08 µM) | relative viability (R406 + Navitoclax; first compound 0.253 µM) | relative viability (R406 + Navitoclax; first compound 0.8 µM) | relative viability (R406 + Navitoclax; first compound 2.53 µM) | relative viability (R406 + Navitoclax; first compound 8 µM) | relative viability (Daporinad + Crizotinib; first compound 0.0005 µM) | relative viability (Daporinad + Crizotinib; first compound 0.001581 µM) | relative viability (Daporinad + Crizotinib; first compound 0.005 µM) | relative viability (Daporinad + Crizotinib; first compound 0.01581 µM) | relative viability (Daporinad + Linsitinib; first compound 0.0005 µM) | relative viability (Daporinad + Linsitinib; first compound 0.001581 µM) | relative viability (Daporinad + Linsitinib; first compound 0.005 µM) | relative viability (Daporinad + Linsitinib; first compound 0.01581 µM)
NCI-H1651 | 0.496 | 0.578 | 0.531 | 0.511 | 0.527 | 1.08 | 1.29 | 0.961 | 0.769 | 0.463 | 0.881 | 0.875 | 0.825 | 0.807 | 0.928 | 0.935 | 0.839 | 0.838
NCI-H1666 | 0.653 | 0.662 | 0.678 | 0.675 | 0.638 | 0.627 | 0.879 | 0.932 | 0.941 | 0.413 | 1.25 | 1.06 | 1.03 | 0.97 | 0.834 | 0.764 | 0.747 | 0.839
NCI-H1734 | 0.359 | 0.372 | 0.376 | 0.346 | 0.243 | 0.789 | 0.982 | 1.13 | 0.813 | 0.607 | 0.713 | 0.715 | 0.737 | 0.464 | 0.841 | 0.962 | 0.894 | 0.732
NCI-H1755 | 0.419 | 0.456 | 0.422 | 0.421 | 0.397 | 0.983 | 1.04 | 0.982 | 0.573 | 0.483 | 0.83 | 0.859 | 0.919 | 0.843 | 1.02 | 0.998 | 0.977 | 0.988
NCI-H1792 | 0.603 | 0.721 | 0.708 | 0.506 | 0.518 | 0.536 | 0.804 | 0.89 | 0.6 | 0.582 | 0.916 | 1.01 | 0.844 | 0.976 | 0.392 | 0.486 | 0.359 | 0.686
NCI-H1915 | 0.536 | 0.567 | 0.529 | 0.488 | 0.521 | 0.769 | 0.799 | 0.789 | 0.707 | 0.662 | 0.911 | 0.933 | 0.982 | 0.915 | 1.13 | 1.17 | 1.09 | 1.11
NCI-H1944 | 0.333 | 0.312 | 0.329 | 0.252 | 0.241 | 0.992 | 1.05 | 1.05 | 0.846 | 0.743 | 1.16 | 1.13 | 1.24 | 1.18 | 1.17 | 1.26 | 1.34 | 1.25
NCI-H1975 | 0.537 | 0.734 | 0.644 | 0.115 | 0.192 | 1.02 | 1.2 | 1.19 | 0.503 | 0.237 | 0.996 | 0.899 | 1.12 | 0.881 | 1.14 | 0.99 | 0.92 | 0.812
NCI-H1993 | 0.651 | 0.667 | 0.611 | 0.683 | 0.607 | 0.974 | 0.98 | 0.848 | 0.78 | 0.7 | 0.954 | 0.941 | 1.01 | 1.08 | 0.703 | 0.715 | 0.782 | 0.77
NCI-H2009 | 0.232 | 0.212 | 0.265 | 0.192 | 0.114 | 1.21 | 1.23 | 1.25 | 1.16 | 1.03 | 1.02 | 1.04 | 1.06 | 0.827 | 1.25 | 1.21 | 1.2 | 0.735
NCI-H2023 | 0.359 | 0.355 | 0.359 | 0.174 | 0.106 | 0.896 | 0.975 | 1.1 | 0.888 | 0.603 | 0.612 | 0.595 | 0.631 | 0.59 | 0.764 | 0.723 | 0.768 | 0.686
NCI-H2085 | 0.468 | 0.459 | 0.45 | 0.455 | 0.36 | 1.13 | 1.16 | 1.28 | 1.01 | 0.667 | 0.874 | 0.825 | 0.868 | 0.841 | 0.907 | 0.959 | 0.915 | 0.918
NCI-H2087 | 0.231 | 0.26 | 0.26 | 0.23 | 0.243 | 1.03 | 0.882 | 1.05 | 1.06 | 0.694 | 0.75 | 0.708 | 0.945 | 0.674 | 0.991 | 0.908 | 0.956 | 0.98
NCI-H2126 | 0.347 | 0.357 | 0.313 | 0.349 | 0.276 | 0.88 | 0.83 | 0.829 | 0.8 | 0.64 | 1.06 | 1.03 | 1.09 | 1.01 | 0.686 | 0.75 | 0.719 | 0.683
NCI-H2228 | 0.728 | 1.07 | 0.688 | 0.244 | 0.427 | 1.17 | 1.33 | 0.996 | 0.628 | 0.168 | 0.505 | 0.548 | 0.625 | 0.636 | 0.668 | 0.812 | 0.633 | 0.951
NCI-H2347 | 0.423 | 0.415 | 0.453 | 0.446 | 0.406 | 0.736 | 0.824 | 0.95 | 0.663 | 0.529 | 0.841 | 0.892 | 0.826 | 0.775 | 1.1 | 1.03 | 1 | 0.981
NCI-H2405 | 0.52 | 0.561 | 0.517 | 0.364 | 0.2 | 0.823 | 0.844 | 0.928 | 0.691 | 0.156 | 0.731 | 0.92 | 0.918 | 0.511 | 0.987 | 1.06 | 1.04 | 0.611
